Assay results reported in patent US6528068B1, “Cosmetic composition containing N-acyl neutral amino acid esters of lower alcohols” (Ajinomoto Co., Inc., priority 1997, dated 2003).

Assays:
[1] = Examination of solubility of a UV-A absorbent in various oily materials; details: amount of “Soft Shade DH” dissolved in 100 g of the oily material
[2] = Evaluation of pigment dispersibility (wetting point / flowing point); type: physicochemical; details: difference between wetting point and flowing point; liquid paraffin added to TiO2 containing 10% by weight of oily material
Experimental: With respect to various oily materials including some N-acylamino acid esters of the present invention, powdery compositions formed by blending each oily material with a powder pigment of titanium dioxide (TiO2) were evaluated or examined from various aspects. This will be described in detail below.
The minimum value in terms of parts by weight in which the powder was put together was defined as wetting point. […] Liquid paraffin was further added thereto from the wetting point, and the minimum numeral of parts by weight of the liquid paraffin in which the mixture came to show a fluidity was defined as flowing point.
The smaller the difference between the wetting point and the flowing point, the better the dispersibility (“Science of Fragrance”, published by Fragrance Journal in 1990, p. 390). Accordingly, the index of pigment dispersibility was evaluated in terms of the difference between the wetting point and the flowing point. That is, in Table 47, when the difference between the wetting point and the flowing point was up to 35, it was rated as ∘∘; when the difference was between 36 and 45, it was rated as ∘; and when the difference was between 46 and 55, it was rated as Δ; and when the difference was 56 or more, it was rated as ×.

[3] = Jap. pat. Publn. (kokoku); cited from earlier work
[4] = solids; cited from earlier work

SMILES | Solubility [1] | Pigment dispersibility [2] | compatibility with an oily solvent [3] | solubility in water and oil [4]
CCCCCCCCCCCC(=O)N(C)CC(=O)OCC(CCCCCCCC)CCCCCCCCCC (stereo not shown) [Reference Synthesis Example 2, N-lauroylsarcosine octyl dodecyl ester] | X (The amount of the compound dissolved in 100 g of the oily material is less than 5 g.) |  |  | 
CCCCCCCCCCCC(=O)N(C)CC(=O)OCCCCCCCCCCCCCCCC(C)C [Reference Synthesis Example 1, N-lauroylsarcosine isostearyl ester] | X (The amount of the compound dissolved in 100 g of the oily material is less than 5 g.) | Δ (when the difference was between 46 and 55, it was rated as Δ) |  | 
CCCCCCCCCCCCCC(=O)OC(C)C [isopropyl myristate] | X (The amount of the compound dissolved in 100 g of the oily material is less than 5 g.) | Δ (when the difference was between 46 and 55, it was rated as Δ) |  | 
CCCCC(CC)C(=O)N(C)CCC(=O)OC (stereo not drawn) [N-2-ethylhexanoyl-N-methyl-β-alanine.methyl ester] |  |  | poor | 
CCCCCCCCCCCCCCCCCC(=O)OCC(O)CO (stereo not shown) [glycerol stearate] | X (The amount of the compound dissolved in 100 g of the oily material is less than 5 g.) |  |  | 
COc1ccc(C(=O)CC(=O)c2ccc(C(C)(C)C)cc2)cc1 [4-t-butyl-4′-methoxybenzoylmethane] |  |  |  | sparingly soluble in water and oil
CCCCCCCCCCCC(=O)N(C)CCC(=O)OC(C)C [Synthesis Example 15, N-lauroyl-N-methyl-β-alanine isopropyl ester] | ◯ (It is at least 10 g.) | ◯◯ |  | 
CCCCCCCCCCCC(=O)N(C)CC(=O)OC(C)C [Synthesis Example 14, N-laurolysarcosine isopropyl ester] | ◯ (It is at least 10 g.) | ◯◯ |  | 
CCCCCCCCCCCC(=O)N[C@@H](CCC(=O)OCC(CCCCCCCC)CCCCCCCCCC)C(=O)OCC(CCCCCCCC)CCCCCCCCCC (stereo partly shown) [lauroylglutamic acid octyldodecyl diester] |  | Δ (when the difference was between 46 and 55, it was rated as Δ) |  | 
